{
  "source": "patent US6294568A",
  "about": "“5-arylpyrrole derivatives” (priority 1997, dated 2001)",
  "key": {"carrageenan footedema": {"tested_on": "carrageenan footedema", "assay": "Carrageenan Footedema Suppression Test", "format": "in vivo, SD rats", "settings": "oral; paw volume three hours after carrageenan administration"}, "adjuvant arthritis": {"tested_on": "adjuvant arthritis", "assay": "Rat Adjuvant Arthritis Test", "format": "in vivo, SD rats", "settings": "3 mg/kg, oral", "procedure": "SD rats were injected subcutaneously with […] liquid paraffin/rat of H-37RA strain in the plantar area of the right hind paw. Only liquid paraffin (0.05 ml) was administered to control groups in the same manner. 21 days after the administration, rats showing the evidence of arthritis were selected and divided into groups having equal mean left and right hind paw volumes, and also having equal arthritis scores. From the date of the grouping, the test samples were administered orally to the rats once daily for 7 days (only the solvent was administered to the negative and positive control groups). The degree of the arthritis was quantitatively evaluated by measuring the volumes of the left and right hind paws by using a volume meter (manufactured by Muromachi Kikai) and by scoring the degree of arthritis by macroscopic observation as illustrated in Table 2. According to the scoring criteria in Table 2, 15 is a perfect score.\nThe dosage of each of the test samples was 3 mg/kg."}, "Human COX-1": {"target": "T1, Human COX-1 (Homo sapiens, UniProt P23219)", "T1 construct": "endogenous in cells; host or cells: whole blood of a healthy human donor (own knowledge: TXB2 of clotting blood comes from platelet COX-1)", "T1 sequence (P23219 24-599)": "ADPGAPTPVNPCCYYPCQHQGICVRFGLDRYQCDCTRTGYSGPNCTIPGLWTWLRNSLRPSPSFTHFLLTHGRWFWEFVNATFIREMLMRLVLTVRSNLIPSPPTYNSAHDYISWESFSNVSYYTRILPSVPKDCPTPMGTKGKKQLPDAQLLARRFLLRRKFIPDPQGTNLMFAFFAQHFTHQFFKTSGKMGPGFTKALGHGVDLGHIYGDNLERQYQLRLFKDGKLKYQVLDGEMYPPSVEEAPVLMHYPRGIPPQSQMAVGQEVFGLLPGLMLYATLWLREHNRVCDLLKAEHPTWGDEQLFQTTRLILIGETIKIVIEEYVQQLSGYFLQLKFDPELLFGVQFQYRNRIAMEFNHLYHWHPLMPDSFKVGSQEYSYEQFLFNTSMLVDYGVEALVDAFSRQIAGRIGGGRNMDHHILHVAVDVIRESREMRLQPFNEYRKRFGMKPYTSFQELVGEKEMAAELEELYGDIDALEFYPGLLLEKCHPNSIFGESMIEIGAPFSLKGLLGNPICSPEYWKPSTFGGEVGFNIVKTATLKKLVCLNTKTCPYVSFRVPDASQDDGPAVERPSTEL", "assay": "Human COX-1 Inhibitory Activity Test (TXB2 in blood)", "format": "cell-based", "settings": "IC50 from Hill Plot", "procedure": "COX-1 and COX-2 activities were measured according to the method of Patrignani et al. (J. Pharm. Exp. Ther. Vol. 271, 1705 (1994)).\n(1) COX-1 activity was measured in the following procedure. […] The serum obtained by 10 minutes of centrifugation at 2000 rpm at 4° C. was stored at -40° C. until the measurement of the amount of thromboxane B2 (TXB2). The test samples, which had been dissolved in ethanol and diluted to the specified concentrations, were previously dispensed into the glass test tubes, and the solvent was evaporated to dryness by Centrifugal Vaporizer (CVE-200D, manufactured by Tokyo Rika Mfg. Co., Ltd.) so that the test samples were added to the plasma.\n(3) The measurement for the TXB2 content was conducted in the following procedure. In a part of a 96 well plate coated with anti-rabbit IgG antibody, 2 wells were allotted respectively to blank well, Non-specific Binding (NSB) well, Maximum Binding (B0) well, standard wells at 7 concentrations of TXB2 (1000 pg/ml) in doubling dilution ranging from 1000-15.6 pg/ml. The rest of the wells were used for the measurement of the samples. EIA buffer was added to the NSB wells (100 μl ) and B0 wells (50 μl), respectively. 50 μl of each of the standard dilution was added in an order from thinner to thicker concentrations. Each of the samples was added to the rest of the wells in an amount of 50 μl. Then, 50 μl of TXB2 tracer was added to each of the wells except for the blank wells. Further, 50 μl of TXB2 antibody was added to each of the wells except for the NSB wells and blank wells, then the well plate was covered with a plastic film and the reaction continued for 18 hours at room temperature. When the reaction was terminated, the wells were washed 5 times with a wash buffer. 200 μl of Elman's reagent was added to each of the wells and then the well plate was covered with a plastic film and developed for 60 minutes in a dark place. The absorbance at 405 nm was measured by an Immuno Reader (NJ-2000, manufactured by Nippon Intermed Co., Ltd.). From the measurement result, %B/B0 was calculated and, applying it to the approximation formula of Hill Plot, the concentration of the samples was determined to be 2,000 times concentration. […]"}, "[1]": {"tested_on": "pain threshold of brewer's yeast inflamed hind paw", "assay": "Analgesic Action Test (Randall et al.)", "format": "in vivo, SD rats", "settings": "3 mg/kg oral, 3 hours", "procedure": "SD rats (6 rats per group) fasted overnight were employed for the test. After the measurement of pain threshold values of the left and right hind paws twice using an analgesimeter, the rats were injected subcutaneously with 0.1 ml of 20% brewer's yeast solution at the plantar area of the right hind paw to elicit inflammation. Two hours after the elicitation of inflammation, the pain threshold values of the left and right hind paws were measured and, immediately after the measurement, the test samples were administered orally to the rats. Three hours after the administration, the pain threshold values of the left and right hind paws were measured. […] The dosage amount of each of the test samples was 3 mg/kg.\nPain threshold value rising rate (%)=((pain threshold value of 3 hours after drug administration-pain threshold value of 2 hours after yeast administration)/(pain threshold value before yeast administration-pain threshold value of 2 hours after yeast administration))×100\nPain threshold value fluctuation rate (%)=(1 -(pain threshold value of 3 hours after drug administration/pain threshold value of 2 hours after […]"}, "Sarcoma 180 solid tumor": {"tested_on": "Sarcoma 180 solid tumor", "assay": "Antitumor Effect with respect to Sarcoma 180 Solid Tumor Mouse", "format": "in vivo, ICR mice", "settings": "10 mg/kg in abdominal cavity, 10 days; day 11", "procedure": "The antitumor effect test was conducted according to the method of the U. S. National Cancer Institute (NCI) (Cancer Chemotherapy Reports part 3, Vol. 3, 1 (1978)). Cell suspension of Sarcoma 180 cells (mouse sarcoma virus) which was employed as the tumor cell strain for transplant was prepared by diluting the cells in the Hank's solution at 2×10^7 cells/ml concentration ([…]), and ICR mice (10 mice per group) aged 5 weeks were injected subcutaneously with 0.2 ml of the cell suspension at the region of the back. Setting the day of the tumor transplantation as day 0. the mice were administered in the abdominal cavity with the compounds of the invention (Preparation Examples 1 and 37), 5-fluorouracyl, and the solution as the control for 10 days consecutively from day 1. On day 11, the mice were sacrificed, and portions of the solid tumor were removed so that weights thereof were measured. The dosage of each of the test samples was 10 mg/kg."}, "Acute Toxicity Test": {"assay": "Acute Toxicity Test", "format": "in vivo, SD rats", "procedure": "SD rats (3 rats per group) fasted overnight was employed in the present test. The title compound (Preparation Example 1) suspended in 1% methyl cellulose was administered to the rats. The test was conducted on the dosages of […]. […] It was indicted from the test result that the title compounds ensure the enhanced safety."}},
  "data": [
    {"smiles": "Cc1cc(-c2ccc(F)cc2)c(-c2ccc(S(C)(=O)=O)cc2)[nH]1", "note": "[Preparation Example 1, 4-(4-fluorophenyl)-2-methyl-5-(4-methylsulfonylphenyl)-1H-pyrrole]", "values": [
      {"measurement": "Edematization Suppression rate", "setting": "carrageenan footedema", "result": 35.5, "unit": "%"},
      {"measurement": "Right Hind Paw Volume day 21", "setting": "adjuvant arthritis; day 21 (starting date of administration), once daily", "result": 3.86, "unit": "mL"},
      {"measurement": "Right Hind Paw Volume day 27", "setting": "adjuvant arthritis; day 27, once daily for 7 days", "result": 2.96, "unit": "mL"},
      {"measurement": "IC50", "setting": "Human COX-1", "result": 649, "unit": "µM"},
      {"measurement": "Pain Threshold Value Fluctuation Rate", "setting": "[1]; Left Hind Paw (non-inflammatory paw)", "result": 2.47, "unit": "%"},
      {"measurement": "Pain Threshold Value Rising Rate", "setting": "[1]; Right Hind Paw (inflammatory paw)", "result": 33.3, "unit": "%"},
      {"measurement": "Tumor Weight", "setting": "Sarcoma 180 solid tumor", "result": 0.726, "unit": "g"},
      {"measurement": "death", "setting": "Acute Toxicity Test; 500/kg, 1000/kg, 2000/kg, observed for a week", "result": "no death was noted in the test"},
      {"measurement": "general symptoms after administration", "setting": "Acute Toxicity Test; rat, in vivo", "result": "an analgesic action was noted after the administration, and the rats recovered to the normal state in one hour"},
      {"measurement": "weight and general symptoms after one week", "setting": "Acute Toxicity Test; rat, in vivo", "result": "the weight increased favorably and no abnormality was noted in the general symptoms"}
    ]}
  ]
}
